Values joined by “and” are separate entries in the source; they are usually repeats but may differ in a detail not shown here. Equal values may be shown once.
Tests used:
[1] = molecular target: T1, WT HIV-1 RT RNase H activity (Human immunodeficiency virus type 1 group M subtype B, UniProt P04585); assay: biochemical; format: biochemical
T1 construct: made in house
Experimental: WT (wild-type) RT, and RTs harboring the NNRTI-resistant mutations K101E, K103N, Y181C, Y188C, G190A and P236L, were overexpressed and purified to homogeneity as described previously. The RT concentration was determined spectrophotometrically at 280 nm using an absorbance coefficient of 260,450 M^−1·cm^−1. The 7-hydroxy tropolone derivative 19,616 (2,7-dihydroxy 2,4,6-cyclo-heptatrien-1-one) was purchased from Molecular Diversity Preservation International (Basel, Switzerland). […] The benzisothiazolone derivatives were procured from MolPort (New York, NY, USA) or Enamine (Kyiv, Ukraine). The DNA and RNA oligonucleotides were synthesized and purified by Integrated DNA Technologies (Coralville, IA, USA). All other reagents were of the highest quality available and were used without further purification.
Compounds were screened at a final concentration of 10 µM in 1× assay buffer (50 mM Tris pH 8.0, 60 mM KCl, 5 mM MgCl2) containing 1% DMSO in 384-well Greiner black polystyrene plates (VWR catalog # 82051-272). A total of 10 µL of intermediate diluted compounds (100 µM in 10% DMSO) was transferred into assay plates using the Evolution-3 (EP3) (Perkin Elmer, Waltham, MA, USA) automated liquid handling platform outfitted with a 384-well transfer head. A total of 40 µL of RT-RNase H enzyme (60 ng per well) were then dispensed into each well using the Titertek MAP-C2 reagent dispenser platform (Huntsville, AL, USA). A total of 50 µL of the RNA/DNA duplex (140 nM) substrate was then dispensed into each well using the MAP-C2 dispenser, and the assay plates were then incubated at room temperature for 20 min. After 20 min, the assay was terminated by the addition of 10 µL of 1 M EDTA pH 9.0 stop buffer. Relative fluorescent unit (RFU) signals, Excitation 490 nm and Emission 528 nm (Cutoff 515 nm), were captured on the Spectromax M5e plate reader (Molecular Devices, Menlo, CA, USA). […] The template also calculated the plate signal-to-background (S:B) ratios (mean maximum signal/mean minimum signal) and Z’-factor coefficient HTS performance statistics.
(§1) The following RNA/DNA T/P substrate was used in the present study: an 18-nucleotide RNA template (RNA-18T: 5′-[…]-3′) was annealed to an 18-nucleotide primer (DNA-18T: 5′-[…]-3′), as described previously. Fluorescein and IowaBlack FQTM were covalently attached to the 3′- and 5′-ter-mini of the RNA and DNA oligonucleotides, respectively.
(§2) The FRET-based RNase H cleavage assays were carried out as described previously. Fluorescence was measured with a SpectraMax M2 microplate spectrofluorometer (Molecular Devices, San Jose, CA, USA) using an excitation wavelength of 490 nm and an emission wavelength of 528 nm. Data were analyzed using SoftMax Pro software, version 4.7.1 (Molecular Devices, San Jose, CA, USA).
We implemented a rapid, robust and inexpensive fluorescence-based 384-well assay for the measurement of RT RNase H activity, previously described by Parniak et al.. The substrate comprises an 18-nucleotide 3′-fluorescein-labeled heteropolymeric RNA annealed to a complementary 5′-dabcyl-modified DNA. RT cleaves the RNA strand of this substrate close to the 3′ end, promoting the dissociation of the fluorescein-labeled RNA fragment and generating a detectable fluorescent signal. We used this HTS assay to screen 65,239 compounds at a final concentration of 10 µM.

[2] = molecular target: T2, Y181C HIV-1 RT RNase H activity (Human immunodeficiency virus type 1 group M subtype B, UniProt P04585, Y768C); assay: FRET-based RT RNase H cleavage assay, Y181C RT; format: biochemical
T2 construct: made in house
Experimental: (§3) WT (wild-type) RT, and RTs harboring the NNRTI-resistant mutations K101E, K103N, Y181C, Y188C, G190A and P236L, were overexpressed and purified to homogeneity as described previously. The RT concentration was determined spectrophotometrically at 280 nm using an absorbance coefficient of 260,450 M^−1·cm^−1. The 7-hydroxy tropolone derivative 19,616 (2,7-dihydroxy 2,4,6-cyclo-heptatrien-1-one) was purchased from Molecular Diversity Preservation International (Basel, Switzerland). Nevirapine was purchased from Selleckchem (Houston, TX, USA). The benzisothiazolone derivatives were procured from MolPort (New York, NY, USA) or Enamine (Kyiv, Ukraine). The DNA and RNA oligonucleotides were synthesized and purified by Integrated DNA Technologies (Coralville, IA, USA). All other reagents were of the highest quality available and were used without further purification.
as §1, §2

[3] = system: Y181C HIV-1 RT RNase H activity; assay: FRET-based RT RNase H cleavage assay, Y181C RT; format: biochemical; details: Y181C RT; fold resistance IC50 mutant/IC50 WT
Experimental: as §3, §1, §2

[4] = system: K103N HIV-1 RT RNase H activity; assay: FRET-based RT RNase H cleavage assay, K103N RT; format: biochemical; details: K103N RT; fold resistance IC50 mutant/IC50 WT
Experimental: as §3, §1, §2

[5] = molecular target: T3, G190A HIV-1 RT RNase H activity (Human immunodeficiency virus type 1 group M subtype B, UniProt P04585, G777A); assay: FRET-based RT RNase H cleavage assay, G190A RT; format: biochemical
T3 construct: made in house
Experimental: as §3, §1, §2

[6] = system: G190A HIV-1 RT RNase H activity; assay: FRET-based RT RNase H cleavage assay, G190A RT; format: biochemical; details: G190A RT; fold resistance IC50 mutant/IC50 WT
Experimental: as §3, §1, §2

[7] = molecular target: T4, K101E HIV-1 RT RNase H activity (Human immunodeficiency virus type 1 group M subtype B, UniProt P04585, K688E); assay: FRET-based RT RNase H cleavage assay, K101E RT; format: biochemical
T4 construct: made in house
Experimental: as §3, §1, §2

[8] = system: K101E HIV-1 RT RNase H activity; assay: FRET-based RT RNase H cleavage assay, K101E RT; format: biochemical; details: K101E RT; fold resistance IC50 mutant/IC50 WT
Experimental: as §3, §1, §2

[9] = molecular target: T5, P236L HIV-1 RT RNase H activity (Human immunodeficiency virus type 1 group M subtype B, UniProt P04585, P823L); assay: FRET-based RT RNase H cleavage assay, P236L RT; format: biochemical
T5 construct: made in house
Experimental: as §3, §1, §2

[10] = system: P236L HIV-1 RT RNase H activity; assay: FRET-based RT RNase H cleavage assay, P236L RT; format: biochemical; details: P236L RT; fold resistance IC50 mutant/IC50 WT
Experimental: as §3, §1, §2

[11] = system: HIV-1; assay: Antiviral activity (HIV-1 replication) in TZM-bl cells; format: cell-based; details: Human immunodeficiency virus 1, mean ± SD
Experimental: The genes for Y181C, Y181I, Y181V and Y181F were cloned into HIV-1LAI. NNRTI susceptibility was determined in TZM-bl cells, as described previously.
(§4) Next, we re-purchased 10 hit compounds with IC50 values < 1.0 µM for the inhibition of RT RNase H activity that were commercially available in sufficient quantities for further analysis. We assessed their antiviral activity and cytotoxicity in TZM-bl cells, as described previously.

[12] = Cytotoxicity in TZM-bl cells; format: cell-based; details: human, TZM-bl cell death
Experimental: as §4

SMILES	IC50 [1] [nM]	IC50 [2] [nM]	Inhibition of RT RNase H Activity Fold-R [3]	Inhibition of RT RNase H Activity Fold-R [4]	IC50 [5] [nM]	Inhibition of RT RNase H Activity Fold-R [6]	IC50 [7] [nM]	Inhibition of RT RNase H Activity Fold-R [8]	IC50 [9] [nM]	Inhibition of RT RNase H Activity Fold-R [10]	EC50 [11] [nM]	CC50 [12] [µM]
Cc1ccc(-n2sc3ccccc3c2=O)cc1S(=O)(=O)N1CCCCC1 [Compound 1, 2-(4-methyl-3-(piperidin-1-ylsulfonyl)phenyl)benzo[d]isothiazol-3(2H)-one]	160 ± 30	470 ± 50	2.9	2 and 2.1	210 ± 20	1.3	250 ± 60	1.6	220 ± 10	1.4	1680 ± 940	≥ 100
CCOC(=O)Cc1csc(-n2sc3ccccc3c2=O)n1 [Compound 2, ethyl 2-(2-(3-oxobenzo[d]isothiazol-2(3H)-yl)thiazol-4-yl)acetate]	130 ± 40	550 ± 20	4.2	1.8	230 ± 20	1.8	280 ± 20	2.2	210 ± 10	1.6	2680 ± 540	≥ 100
CCN(CC)S(=O)(=O)c1cccc(-n2sc3ccccc3c2=O)c1 [Compound 4, N,N-diethyl-3-(3-oxobenzo[d]isothiazol-2(3H)-yl)benzenesulfonamide]	260 ± 80	270 ± 30	1.0	3.2	310 ± 40	1.2	90 ± 30	0.3	310 ± 40	1.2	3270 ± 490	≥ 100
